Conditions: 303.15 K, Liquid, Vibrating tube method

CCCCCCCC(=O)OCC(COC(=O)CCCCCCC)(COC(=O)CCCCCCC)COC(=O)CCCCCCC [pentaerythritol tetraoctanoate]
Conditions | mass density [kg/m3]
11935 kPa | 962.6
11965 kPa | 962.7
11996 kPa | 962.7
12028 kPa | 962.7
12059 kPa | 962.7
12086 kPa | 962.8
12118 kPa | 962.8
12150 kPa | 962.8
12183 kPa | 962.8
12208 kPa | 962.8
12241 kPa | 962.9
12274 kPa | 962.8
12307 kPa | 962.8
12340 kPa | 962.9
12368 kPa | 963
12402 kPa | 962.9
12436 kPa | 963
12470 kPa | 963.1
12499 kPa | 963.1
12533 kPa | 962.9
12568 kPa | 963
12603 kPa | 963
12633 kPa | 963.1
12668 kPa | 963.1
12704 kPa | 963.1
12734 kPa | 963.1
12770 kPa | 963.2
12805 kPa | 963.2
12841 kPa | 963.2
12878 kPa | 963.1
12916 kPa | 963.2
12947 kPa | 963.3
12985 kPa | 963.3
13022 kPa | 963.3
13059 kPa | 963.3
13090 kPa | 963.4
13128 kPa | 963.3
13167 kPa | 963.4
13200 kPa | 963.3
13240 kPa | 963.3
13279 kPa | 963.6
13308 kPa | 963.5
13346 kPa | 963.4
13386 kPa | 963.5
13427 kPa | 963.6
13468 kPa | 963.5
13501 kPa | 963.7
13542 kPa | 963.6
13577 kPa | 963.5
13611 kPa | 963.7
13693 kPa | 963.7
13813 kPa | 963.7
13941 kPa | 963.8
13985 kPa | 963.8
14067 kPa | 964
14112 kPa | 964
14142 kPa | 964
14187 kPa | 964
14240 kPa | 964.1
14286 kPa | 964.1
14332 kPa | 964.1
14371 kPa | 964.1
14417 kPa | 964.1
14464 kPa | 964.1
14512 kPa | 964.2
14551 kPa | 964.1
14598 kPa | 964.1
14647 kPa | 964.2
14697 kPa | 964.3
14737 kPa | 964.2
14787 kPa | 964.4
14836 kPa | 964.4
14887 kPa | 964.3
14930 kPa | 964.3
14981 kPa | 964.5
15031 kPa | 964.5
15083 kPa | 964.5
15135 kPa | 964.5
15179 kPa | 964.6
15234 kPa | 964.6
15288 kPa | 964.5
15341 kPa | 964.7
15388 kPa | 964.7
15447 kPa | 964.7
15495 kPa | 964.8
15554 kPa | 964.8
15616 kPa | 964.9
15669 kPa | 964.9
15728 kPa | 964.9
15758 kPa | 964.9
15786 kPa | 964.9
15815 kPa | 965
15840 kPa | 964.9
15869 kPa | 964.9
15894 kPa | 964.9
15923 kPa | 964.9
15952 kPa | 965.1
15978 kPa | 965
16008 kPa | 965.1
16032 kPa | 965.1
16062 kPa | 965.2
16092 kPa | 965.1
16117 kPa | 965.2
16148 kPa | 965.1
16173 kPa | 965.1
16205 kPa | 965.1
16230 kPa | 965.1
16261 kPa | 965.2
16288 kPa | 965.2
16319 kPa | 965.2
16349 kPa | 965.2
16375 kPa | 965.3
16407 kPa | 965.4
16433 kPa | 965.3
16465 kPa | 965.2
16496 kPa | 965.2
16523 kPa | 965.3
16556 kPa | 965.3
16586 kPa | 965.4
16613 kPa | 965.4
16645 kPa | 965.4
16672 kPa | 965.4
16704 kPa | 965.3
16737 kPa | 965.5
16764 kPa | 965.4
16798 kPa | 965.5
16825 kPa | 965.4
16853 kPa | 965.5
16875 kPa | 965.6
16908 kPa | 965.6
16952 kPa | 965.6
16982 kPa | 965.7
17016 kPa | 965.6
17044 kPa | 965.6
17078 kPa | 965.6
17112 kPa | 965.7
17141 kPa | 965.7
17175 kPa | 965.7
17209 kPa | 965.7
17238 kPa | 965.9
17272 kPa | 965.8
17302 kPa | 965.9
17339 kPa | 965.8
17367 kPa | 965.9
17402 kPa | 965.8
17434 kPa | 965.9
17468 kPa | 965.9
17504 kPa | 966

— the NIST ThermoML archive (doi:10.1021/je060271a)
